The test system of data set [1] is lesions in lymph nodes and bone of men with prostate cancer. Briefly: Phase 1 cross-over study: whole-body and SPECT/CT lesion imaging. It counts as in vivo, human. Conditions: patient with prior prostatectomy and rising PSA, FIG. 2C. The text has this:
(§1) Pharmacokinetics, Biodistribution, Dosimetry, Metabolism & Excretion of compound represented by Formula (1) and Formula (2). Methods: Fourteen subjects (7 metastatic prostate cancer patients and 7 healthy, normal males) were enrolled in a phase 1, single-blind, randomized, cross-over study in which subjects were randomly administered a single dose (740 MBq; 20 mCi) of a compound represented by Formula (1) and a similar chemical analog, a compound represented by Formula (2), 14 days apart. […] (FIGS. 1 and 2A)

Data set [2] can be described thus: Phase 1 cross-over study: pharmacokinetics, biodistribution, dosimetry, excretion. It counts as in vivo, human.
Source text: as §1

Data set [3] addresses PSMA (Homo sapiens, UniProt Q04609). The data set is described as follows: In vitro binding studies to PSMA. The settings on record: read-out: affinity of binding to PSMA. The source says: As illustrated, the dimeric backbone of both Formula (1) and Formula (2) compounds contain carboxylate residues that bind to the basic substrate binding pockets of the protein. The radiolabel chelator is attached to the side chain carboxyl residue (Formula (1)) or the side chain amine group (Formula (2)) through an intervening linker.

PSMA, sequence (Q04609 whole entry): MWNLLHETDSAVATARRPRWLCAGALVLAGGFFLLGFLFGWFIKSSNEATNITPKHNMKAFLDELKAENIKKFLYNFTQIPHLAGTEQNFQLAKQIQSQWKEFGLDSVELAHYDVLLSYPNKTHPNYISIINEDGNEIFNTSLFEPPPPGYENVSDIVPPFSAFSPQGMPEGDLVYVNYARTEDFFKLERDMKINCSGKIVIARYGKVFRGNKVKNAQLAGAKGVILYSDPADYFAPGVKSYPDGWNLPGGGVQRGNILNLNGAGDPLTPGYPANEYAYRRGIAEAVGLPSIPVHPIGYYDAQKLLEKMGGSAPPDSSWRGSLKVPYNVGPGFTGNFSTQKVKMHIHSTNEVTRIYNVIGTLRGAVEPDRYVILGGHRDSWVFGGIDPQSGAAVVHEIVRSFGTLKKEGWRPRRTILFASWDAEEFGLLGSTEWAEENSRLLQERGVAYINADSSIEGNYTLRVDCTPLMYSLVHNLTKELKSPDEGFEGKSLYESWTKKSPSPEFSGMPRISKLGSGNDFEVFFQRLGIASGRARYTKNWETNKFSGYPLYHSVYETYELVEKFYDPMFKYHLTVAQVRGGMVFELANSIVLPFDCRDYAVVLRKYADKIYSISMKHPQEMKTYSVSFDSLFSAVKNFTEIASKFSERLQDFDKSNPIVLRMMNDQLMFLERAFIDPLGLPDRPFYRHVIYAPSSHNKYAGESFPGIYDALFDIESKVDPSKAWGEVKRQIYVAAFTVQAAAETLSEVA

For `N[C@@H](CCCC[N+]12Cc3n(CC(=O)O)cc[n+]3[99Tc-2]1[n+]1ccn(CC(=O)O)c1C2)C(=O)NCCCCC(NC(=O)NC(CCC(=O)O)C(=O)O)C(=O)O.[C-]#[O+].[C-]#[O+].[C-]#[O+]` (stereo partly drawn) [Formula (2)], the “detection of metastatic lesions compared with bone scan” value in data set [1] is “identified multiple foci of metastatic cancer not seen in the bone scan”. Further, the “period over which compound is cleared from blood” value in data set [2] (FIG. 1A) was “about 1500 minutes”. The physiological clearance rate result in data set [2] (Formula (2) compared with Formula (1)) is “more rapid”. In data set [2] (Formula (2) compared with Formula (1), FIG. 1A), the “rate of clearance from blood” value is reported as “greater”. For the same compound, the “clearance from these organs” value in data set [2] (Formula (2) compared with Formula (1), full body scans over 24 hours) is recorded as “clears more rapidly”. The tissues of accumulation result in data set [2] (in vivo pharmacokinetic and biodistribution studies) is “liver, kidneys and salivary glands as well as the urinary bladder and prostate tissue”. Moreover, the “estimated radiation dose (dosimetry)” value in data set [2] (single dose 740 MBq (20 mCi)) is recorded as “within the clinically acceptable range”. Moreover, the “amount excreted in urine” value in data set [2] (urine samples over 30 hours post administration, Formula (2) compared with Formula (1), FIG. 1B) is recorded as “significantly greater amount”.

Take `N[C@@H](CCCC[N+]12Cc3n(CC(=O)O)cc[n+]3[Tc-2]1[n+]1ccn(CC(=O)O)c1C2)C(=O)NCCCCC(NC(=O)NC(CCC(=O)O)C(=O)O)C(=O)O.[C-]#[O+].[C-]#[O+].[C-]#[O+]` (stereo partly drawn) [Formula (2)]: in data set [3], the Kd worked out at 31 nM.

(Values after patent publication US20150110716A1, “METHODS OF USING SPECT/CT ANALYSIS FOR STAGING CANCER” (Molecular Insight Pharmaceuticals, Inc., priority 2013, published 2015).)
